Measurements from the NIST ThermoML archive (doi:10.1021/je1003065).

Experiment: mn = molality of the nth substance listed, in mol/kg
Details: Liquid, Vibrating tube method

[Br-].[Li+] [lithium bromide] + CCO
Details	mass density [kg/m3]
348.15 K, 5002 kPa, m1 = 0.2335	761.71
348.15 K, 5002 kPa, m1 = 1.462	838.72
348.15 K, 5004 kPa, m1 = 0.9499	807.6
348.15 K, 5004 kPa, m1 = 2.272	885.02
348.15 K, 5012 kPa, m1 = 2.833	915.98
348.15 K, 5024 kPa, m1 = 3.368	943.65
348.15 K, 5412 kPa, m1 = 0.5972	785.83
348.15 K, 10064 kPa, m1 = 0.9499	812.44
348.15 K, 19957 kPa, m1 = 2.833	928.46
348.15 K, 19985 kPa, m1 = 0.2335	776.82
348.15 K, 19985 kPa, m1 = 0.9499	821.56
348.15 K, 20024 kPa, m1 = 1.462	852.51
348.15 K, 29942 kPa, m1 = 0.9499	830.19
348.15 K, 29985 kPa, m1 = 3.368	963.31
348.15 K, 39784 kPa, m1 = 0.9499	838.22
348.15 K, 39945 kPa, m1 = 0.5972	816.93
348.15 K, 39947 kPa, m1 = 0.2335	794.15
348.15 K, 39957 kPa, m1 = 2.833	943.19
348.15 K, 39978 kPa, m1 = 3.368	970.26
348.15 K, 40002 kPa, m1 = 1.462	868.51
348.15 K, 49921 kPa, m1 = 2.272	920.25
348.15 K, 49926 kPa, m1 = 2.833	949.82
348.15 K, 49927 kPa, m1 = 0.9499	845.97
348.15 K, 59947 kPa, m1 = 0.2335	809.42
348.15 K, 59956 kPa, m1 = 0.5972	831.96
348.15 K, 59986 kPa, m1 = 1.462	882.36
348.15 K, 60002 kPa, m1 = 0.9499	853.14
348.15 K, 60024 kPa, m1 = 3.368	982.97
348.15 K, 69784 kPa, m1 = 0.9499	859.6
348.15 K, 69784 kPa, m1 = 2.272	932.62
348.15 K, 70024 kPa, m1 = 2.833	962.07
348.15 K, 79325 kPa, m1 = 0.9499	865.42
348.15 K, 79924 kPa, m1 = 3.368	994.3
348.15 K, 79956 kPa, m1 = 1.462	894.65
348.15 K, 80004 kPa, m1 = 0.2335	822.02
348.15 K, 80021 kPa, m1 = 0.5972	844.82
348.15 K, 89923 kPa, m1 = 3.368	999.65
348.15 K, 89926 kPa, m1 = 0.2335	827.8
348.15 K, 89931 kPa, m1 = 2.272	944.08
348.15 K, 89932 kPa, m1 = 1.462	900.39
348.15 K, 89935 kPa, m1 = 0.9499	871.34
348.15 K, 89954 kPa, m1 = 2.833	973.13
348.15 K, 99845 kPa, m1 = 1.462	905.92
348.15 K, 99934 kPa, m1 = 3.368	1004.87
348.15 K, 99935 kPa, m1 = 0.9499	876.39
348.15 K, 99945 kPa, m1 = 2.272	949.54
348.15 K, 99957 kPa, m1 = 0.2335	833.35
348.15 K, 99968 kPa, m1 = 2.833	978.42
348.15 K, 99985 kPa, m1 = 0.5972	855.43
348.16 K, 10021 kPa, m1 = 2.272	890.16
348.16 K, 10032 kPa, m1 = 3.368	947.88
348.16 K, 10034 kPa, m1 = 1.462	843.52
348.16 K, 19902 kPa, m1 = 0.5972	799.98
348.16 K, 29784 kPa, m1 = 2.272	906.12
348.16 K, 30024 kPa, m1 = 2.833	936.13
348.16 K, 49923 kPa, m1 = 0.2335	802.07
348.16 K, 49952 kPa, m1 = 3.368	976.77
348.16 K, 59932 kPa, m1 = 2.272	926.65
348.16 K, 69784 kPa, m1 = 1.462	888.55
348.16 K, 70013 kPa, m1 = 0.5972	838.69
348.16 K, 79926 kPa, m1 = 2.833	967.67
348.17 K, 50201 kPa, m1 = 1.462	875.81
348.17 K, 69845 kPa, m1 = 0.2335	816.09
353.09 K, 80053 kPa, m1 = 1.462	891.89
353.1 K, 9980 kPa, m1 = 1.462	839.5
353.1 K, 19703 kPa, m1 = 1.462	848.5
353.1 K, 29947 kPa, m1 = 1.462	857.25
353.1 K, 39836 kPa, m1 = 1.462	865.06
353.1 K, 49993 kPa, m1 = 1.462	872.5
353.1 K, 60279 kPa, m1 = 1.462	879.53
353.1 K, 69928 kPa, m1 = 1.462	885.72
353.1 K, 89979 kPa, m1 = 1.462	897.68
353.1 K, 99915 kPa, m1 = 1.462	903.29
353.11 K, 5043 kPa, m1 = 1.462	834.64
353.13 K, 1217 kPa, m1 = 1.462	830.74
353.13 K, 5143 kPa, m1 = 0.5972	781.1
353.13 K, 10028 kPa, m1 = 2.272	886.04
353.13 K, 20124 kPa, m1 = 2.272	895.23
353.13 K, 29947 kPa, m1 = 2.272	902.89
353.13 K, 89945 kPa, m1 = 0.2335	824.73
353.13 K, 99992 kPa, m1 = 2.272	946.74
353.14 K, 9986 kPa, m1 = 2.833	916.2
353.14 K, 19985 kPa, m1 = 0.2335	772.17
353.14 K, 20259 kPa, m1 = 0.5972	796.52
353.14 K, 29993 kPa, m1 = 0.5972	804.77
353.14 K, 39486 kPa, m1 = 2.272	909.8
353.14 K, 49965 kPa, m1 = 2.833	946.54
353.14 K, 49994 kPa, m1 = 2.272	916.93
353.14 K, 60014 kPa, m1 = 2.272	924.01
353.14 K, 69979 kPa, m1 = 2.272	929.91
353.14 K, 80071 kPa, m1 = 2.272	936.01
353.14 K, 89925 kPa, m1 = 2.833	970.1
353.14 K, 89993 kPa, m1 = 2.272	941.4
353.15 K, 1023 kPa, m1 = 0.2335	752.56
353.15 K, 1302 kPa, m1 = 2.833	908.32
353.15 K, 1405 kPa, m1 = 0.9499	799.45
353.15 K, 5002 kPa, m1 = 0.2335	756.87
353.15 K, 5015 kPa, m1 = 2.833	911.75
353.15 K, 5074 kPa, m1 = 0.9499	803.32
353.15 K, 9985 kPa, m1 = 0.9499	808.32
353.15 K, 10021 kPa, m1 = 0.2335	762.65
353.15 K, 19924 kPa, m1 = 0.9499	817.86
353.15 K, 19927 kPa, m1 = 2.833	924.6
353.15 K, 29784 kPa, m1 = 0.9499	826.6
353.15 K, 29974 kPa, m1 = 0.2335	781.57
